From US8404460B2, “Method for detecting and/or identifying Clostridium difficile” (Biomerieux, priority 2008, dated 2013)

Legend:
Other Clostridium = type: cell-based, Clostridium spp
Clostridium difficile [1] = test: Example 2: egg yolk base media each containing a chromogenic beta-glucosidase substrate, growth and coloration of strains; type: cell-based; details: for Co = coloration / Gr = growth: Clostridium difficile strains, 48 h, egg yolk base; for sensitivity with respect to Clostridium difficile: Example 2, 48 h
Clostridium difficile [2] = test: Example 3: Colombia base media with a chromogenic beta-glucosidase substrate and 300 mg/l ammoniacal iron citrate; type: cell-based; design: key to diffusion of the coloration: *: diffusion of trie coloration; details: Clostridium difficile strains, 48 h; for Co = coloration / Gr = growth: Colombia base, 300 mg/l ammoniacal iron citrate
Clostridium difficile [3] = test: Example 5: two prototype media for C. difficile, % of strains producing a coloration; type: cell-based
Experimental: (§1) 107 strains were tested on two prototype media for C. difficile, the compositions of which are the following (per liter):
(§2) The inoculation is carried out from precultures prepared for 48 h at 37° C. under anaerobic conditions.
(§3) A suspension in physiological saline at 0.5 McF is prepared and then the strains are inoculated using a 10 μl calibrated loop.
(§4) The readings are carried out after incubation for 24 and 48 hours at 37° C.

[4] = system: strains other than Clostridium difficile; test: Example 5: selectivity of the medium, growth of strains other than Clostridium difficile; type: cell-based
Experimental: as §1, §2, §3, §4

[5] = system: C. difficile strains 042, 308, 169, 187; test: Example 4: five CHE-beta-glucoside media with varying esculin and glucose, colony diameter and coloration strength; type: cell-based, Clostridium difficile; details: Example 4, according to medium 2
Experimental: Five media, each containing 48.10 g/l of Columbia base, 2.5 g/l of sodium taurocholate, 200 mg/l of ammoniacal iron citrate, 100 mg/l of CHE-beta-glucoside, and also an inhibitor system normally used in the media for Clostridium difficile, based on D-cycloserine, and varying concentrations of esculin and glucose (see following table):
as §2, §3
The readings are carried out after incubation for 24 hours at 37° C.
For Growth: • The values indicated correspond to the diameter of the colonies.
For Coloration Strength: • 1 corresponds to the presence of a clear coloration of weak strength, • 1.5 corresponds to the presence of a coloration that is intermediate between colorations 1 and 2, • 2 corresponds to the presence of a clear coloration of medium strength, • 2.5 corresponds to the presence of a coloration that is intermediate between colorations 2 and 3, • 3 corresponds to the presence of a strong coloration.

[6] = substrate 300 mg/l +50 mg of ammoniacal iron citrate
[7] = substrate 300 mg/l +500 mg/l of ammoniacal iron citrate

With “dihydroxyflavone-β-glucoside [DHF-β-glucoside]” the “Co = coloration” value (Other Clostridium) was 3/12, the “Gr = growth” value (Other Clostridium) was 12/14 and the “Co = coloration” value (Clostridium difficile [1]; [6]) was 20/28. The “Gr = growth” value (Clostridium difficile [1]; [6]) was 28/28, the “Co = coloration” value (Clostridium difficile [2]; substrate 300 mg/l) was 10/10 and the “Gr = growth” value (Clostridium difficile [2]; substrate 300 mg/l) was 10/10.

In the case of `O=c1oc2cc(O)c(O[C@@H]3O[C@H](CO)[C@@H](O)[C@H](O)[C@H]3O)cc2c2c1CCCC2` [CHE-β-glucoside, 3,4-cyclohexenoesculetin-β-glucoside], the “Co = coloration” value (Other Clostridium) was 6/17, the “Gr = growth” value (Other Clostridium) was 17/17 and the “sensitivity with respect to Clostridium difficile” value (“sensitivity” below) (Clostridium difficile [3]; Example 5, from 24 h onward) was “good sensitivity”. For the same compound, the “strains of Clostridium difficile revealed” value (Clostridium difficile [3]; from 24 h onward, with a minimum of false positives) was about 90%, the “Co = coloration” value (Clostridium difficile [1]; [7]) was 20/21 and the “Gr = growth” value (Clostridium difficile [1]; [7]) was 21/28. For the same compound, the “sensitivity” value (Clostridium difficile [1]) was “good sensitivity” and the “specificity with respect to Clostridium difficile” value [4] was “good specificity”.

In the case of “5-bromo-3-indoxyl-β-glucoside [Blue-β-glucoside]”, the “diffusion of the coloration” value (Clostridium difficile [2]; Blue substrate 300 mg/l) was “*”, the “Co = coloration” value (Clostridium difficile [2]; Blue substrate 300 mg/l) was 10/10 and the “Gr = growth” value (Clostridium difficile [2]; Blue substrate 300 mg/l) was 10/10.

With “5-bromo-6-chloro-3-indoxyl-β-glucoside [Magenta-β-glucoside]” the “Co = coloration” value (Other Clostridium) was 6/17, the “Gr = growth” value (Other Clostridium) was 17/17 and the “Co = coloration” value (Clostridium difficile [1]; substrate 80 mg/l) was 16/18. For the same compound, the “Gr = growth” value (Clostridium difficile [1]; substrate 80 mg/l) was 18/28 and the “sensitivity” value (Clostridium difficile [1]) was “good sensitivity”.

In the case of `O=C1c2ccccc2C(=O)c2c1ccc(O[C@@H]1O[C@H](CO)[C@@H](O)[C@H](O)[C@H]1O)c2O` [Alizarin-β-glucoside, 1,2-dihydroxyanthraquinone-β-glucoside], the “Co = coloration” value (Other Clostridium) was 2/16, the “Gr = growth” value (Other Clostridium) was 16/17 and the “Co = coloration” value (Clostridium difficile [1]; substrate 50 mg/l) was 18/22. For the same compound, the “Gr = growth” value (Clostridium difficile [1]; substrate 50 mg/l) was 22/28, the “sensitivity” value (Clostridium difficile [1]) was “good sensitivity” and the “Co = coloration” value (Clostridium difficile [2]; substrate 50 mg/l) was 8/10. For the same compound, the “Gr = growth” value (Clostridium difficile [2]; substrate 50 mg/l) was 10/10.

`OC[C@H]1O[C@@H](Oc2cccc3cccnc23)[C@H](O)[C@@H](O)[C@@H]1O` [8-Hydroxyquinoline-β-glucoside, 8-hydroxyquinoline-β-glucoside] was tested, and the “Co = coloration” value (Clostridium difficile [2]; substrate 150 mg/l) was 5/10 and the “Gr = growth” value (Clostridium difficile [2]; substrate 150 mg/l) was 10/10.

For `O=c1ccc2cc(O[C@@H]3O[C@H](CO)[C@@H](O)[C@H](O)[C@H]3O)c(O)cc2o1` [esculin, esculetin-β-glucoside], the “effect on the strength of the coloration” value [5] was “positive effect”.
